Laboratory results from patent US8618111B2, “5-alkynyl-pyrimidines” (Boehringer Ingelheim International GmbH, priority 2010, dated 2013).

Tests used:
mTOR = mTOR (Homo sapiens (Human), UniProt P42345); assay: mTOR kinase activity assay (phosphorylation status of mTOR substrate 4E-BP1; TR-FRET); format: biochemical; conditions: GFP-4E-BP1 substrate, 8 μM ATP
Method: mTOR Kinase Activity Assay
(Phosphorylation Status of mTOR Substrate 4E-BP1; TR-FRET)
The mTOR kinase TR-FRET assay utilizes a physiologically relevant protein substrate for mTOR (4E-BP1, labeled with an acceptor fluorophore (Green Fluorescent Protein) and paired with a corresponding Tb-labeled phospho-specific antibody.
The assay itself is divided into two phases: the reaction phase and the detection phase. In the reaction phase, all components required for the kinase reaction are added to the well, including the labeled protein substrate. The reaction is allowed to incubate for 60 minutes. After the reaction, EDTA is added to stop the kinase reaction, and terbium-labeled antibody is added to bind phosphorylated product. Because the terbium chelate is stable at the EDTA concentrations used to stop a kinase assay, the antibody and EDTA can be pre-mixed prior to addition to minimize pipetting steps. Binding of the terbium labeled antibody to the fluorophore-labeled phosphorylated product brings the terbium and GFP into proximity, resulting in an increase in TR-FRET. In the presence of an inhibitor, formation of phosphorylated product is reduced, and the TR-FRET value is decreased.
• GFP-4E-BP1 substrate; Invitrogen order no. PV4759 • Lanthascreen Tb-anti-p4E-BP1 (pThr46) Antibody Kit; Invitrogen order no. PV4758 • FRAP1 (mTOR) kinase; Invitrogen order no.
400 nM GFP-4E-BP1, 8 μM ATP, ˜150 ng/mL mTOR, 50 mM HEPES pH 7.5, 0.01% Polysorbate 20, 1 mM EGTA, 10 mM MnCl2, and variable amounts of test compounds.
Note: Thaw and keep mTOR, the substrate, ATP, and the antibody on ice prior to making working dilutions. Working dilutions of these components can be kept at room temperature for short periods of time the day of use. • 1. Add 2 ml of 5× Assay Buffer to 8 ml water to prepare 10 ml of 1× Assay Buffer, wherein the concentration of 1× Assay Buffer is 50 mM HEPES pH 7.5, 0.01% Polysorbate 20, 1 mM EGTA, and 10 mM MnCl2. • 2. Prepare Antibody/EDTA Solution by first adding 2.75 μl of Tb-anti p4E-BP1 Antibody to 2397 μl of LanthaScreen™ TR-FRET Dilution Buffer. Then, add 100 μl of 0.5 M EDTA. • 3. […] Then, add 1.6 μl of mTOR (0.45 mg/mL). • 4. Prepare ATP Solution by adding 3.2 μl of 10 mM ATP to 1997 μl of 1× Assay Buffer. Serial Dilution of Inhibitors (16 Point Curve)
Inhibitors are serially diluted in DMSO, then diluted to a 4× working concentration with 1× Assay Buffer. • 1. Dispense 40 μl of DMSO to two adjacent columns of a 96 well plate per compound (e.g. columns 1 and 2). • 2. Add 10 μl of inhibitor stock (10 mM) to the first well of the first column (A1) and mix. • 3. Remove 10 μl from A1 and transfer to the adjacent well in the next column (B1) and mix. • 4. Remove 10 μl from B1 and transfer to the next well in the first column (B2) and mix. • 5. […] Remove 4 μl of diluted compounds and add to 96 μl of 1× Assay Buffer in a 96-well plate making 4× compound dilutions. Kinase Reaction • 1. Add 2.5 μl of 4X compound dilutions to a 384-well plate. • 2. […] Preincubate for […] at RT (shaker). • 5. Add 5 μl of ATP Solution to all wells to start reactions. • 6. Shake the assay plate on a plate shaker for 30 seconds. • 7. Incubate the assay plate for one hour at room temperature (20-25° C.). Stop Step and Fluorescence Detection • 1. Add 10 μl of Antibody/EDTA Solution to each well in columns 1-9. • 2. Shake the assay plate on a plate shaker for 30 seconds. • 3. Incubate the assay plate for one hour at room temperature (20-25° C.). • 4. Measure the GFP (FRET) and terbium (reference) emission signals on a fluorescence plate reader (e.g. Perkin Elmer Envision). Data Analysis • 1. Calculate the emission ratio for each sample by dividing the GFP (FRET) signal by the terbium (reference) signal. • 2.

PI3Kalpha = PI3Kalpha (Homo sapiens (Human), UniProt P42336); assay: Inhibition of PI3Kalpha-induced PIP-2 phosphorylation (filter-binding assay); format: biochemical; conditions: 33P-ATP
Sequence of PI3Kalpha (P42336 whole entry, species assumed): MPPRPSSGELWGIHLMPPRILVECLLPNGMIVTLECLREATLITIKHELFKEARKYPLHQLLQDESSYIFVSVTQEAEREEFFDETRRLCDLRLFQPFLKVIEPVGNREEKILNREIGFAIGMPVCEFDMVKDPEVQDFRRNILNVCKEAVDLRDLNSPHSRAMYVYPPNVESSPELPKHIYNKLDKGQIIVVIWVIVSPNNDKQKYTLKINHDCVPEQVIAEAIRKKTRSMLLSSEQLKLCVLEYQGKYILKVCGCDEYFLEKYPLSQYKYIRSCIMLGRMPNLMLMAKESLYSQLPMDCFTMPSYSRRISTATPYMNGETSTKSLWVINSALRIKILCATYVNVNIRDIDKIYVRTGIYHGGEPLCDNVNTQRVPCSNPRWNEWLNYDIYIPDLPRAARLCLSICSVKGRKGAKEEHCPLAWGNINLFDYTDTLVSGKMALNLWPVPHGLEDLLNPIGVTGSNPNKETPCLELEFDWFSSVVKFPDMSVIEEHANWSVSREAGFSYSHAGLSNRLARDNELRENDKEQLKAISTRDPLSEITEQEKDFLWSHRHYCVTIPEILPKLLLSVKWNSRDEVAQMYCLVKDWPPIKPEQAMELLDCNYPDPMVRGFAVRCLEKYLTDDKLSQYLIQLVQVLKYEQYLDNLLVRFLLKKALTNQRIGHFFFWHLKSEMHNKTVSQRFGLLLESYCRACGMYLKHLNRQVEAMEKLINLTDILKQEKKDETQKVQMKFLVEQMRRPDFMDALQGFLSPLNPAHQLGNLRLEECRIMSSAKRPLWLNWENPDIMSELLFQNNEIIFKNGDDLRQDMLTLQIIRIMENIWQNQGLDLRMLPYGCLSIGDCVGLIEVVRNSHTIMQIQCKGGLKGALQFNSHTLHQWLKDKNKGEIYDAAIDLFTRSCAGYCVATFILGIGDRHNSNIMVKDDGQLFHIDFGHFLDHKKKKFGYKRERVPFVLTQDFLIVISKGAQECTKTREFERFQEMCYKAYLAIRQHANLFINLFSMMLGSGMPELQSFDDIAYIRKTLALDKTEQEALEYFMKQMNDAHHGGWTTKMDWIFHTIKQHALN
Sequence of PI3Kalpha (P27986 whole entry partner, species assumed): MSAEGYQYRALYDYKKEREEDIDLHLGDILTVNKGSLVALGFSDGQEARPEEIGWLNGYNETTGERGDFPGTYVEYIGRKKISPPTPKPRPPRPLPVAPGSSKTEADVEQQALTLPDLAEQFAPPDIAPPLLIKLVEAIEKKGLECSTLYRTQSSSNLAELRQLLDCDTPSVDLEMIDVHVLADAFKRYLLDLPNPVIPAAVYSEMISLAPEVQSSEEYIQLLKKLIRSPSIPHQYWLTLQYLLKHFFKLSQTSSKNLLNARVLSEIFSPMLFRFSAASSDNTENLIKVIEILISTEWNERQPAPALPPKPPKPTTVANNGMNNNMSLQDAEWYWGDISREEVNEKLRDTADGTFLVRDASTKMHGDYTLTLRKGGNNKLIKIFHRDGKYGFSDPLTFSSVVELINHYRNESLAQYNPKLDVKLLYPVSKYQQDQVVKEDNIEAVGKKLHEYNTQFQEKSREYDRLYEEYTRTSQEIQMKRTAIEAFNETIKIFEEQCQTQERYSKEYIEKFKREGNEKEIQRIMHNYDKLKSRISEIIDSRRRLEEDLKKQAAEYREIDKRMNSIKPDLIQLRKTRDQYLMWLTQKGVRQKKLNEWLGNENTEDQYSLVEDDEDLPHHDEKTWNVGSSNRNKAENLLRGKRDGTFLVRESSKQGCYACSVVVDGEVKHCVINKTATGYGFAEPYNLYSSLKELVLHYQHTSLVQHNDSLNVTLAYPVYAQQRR
Method: Inhibition of PI3Kalpha-Induced PIP-2 Phosphorylation
Method Type: Filter-Binding-Assay
Aliquoted in desired amounts and stored at −80° C. Final assay concentration 25 ng/well.

[1] = tested on: PC3 (human prostate carcinoma cell line) cells; assay: PC3 proliferation test; format: cell-based; conditions: PC-3, 72 h, 3 days incubation, DNA dye fluorescence
Method: The test is based on measurement of cellular DNA content via fluorescent dye binding. Because cellular DNA content is highly regulated, it is closely proportional to cell number. The extent of proliferation is determined by comparing cell counts for samples treated with drugs with untreated controls.
PC3 (human prostate carcinoma cell line) cells are sown in microtitre plates and incubated overnight in culture medium at 37° C. and 5% CO2. The test substances are diluted stepwise and added to the cells such that the total volume is 200 μL/well. Cells to which diluent, but not substance, is added serve as controls.

Sequence of mTOR (P42345 1360-2549): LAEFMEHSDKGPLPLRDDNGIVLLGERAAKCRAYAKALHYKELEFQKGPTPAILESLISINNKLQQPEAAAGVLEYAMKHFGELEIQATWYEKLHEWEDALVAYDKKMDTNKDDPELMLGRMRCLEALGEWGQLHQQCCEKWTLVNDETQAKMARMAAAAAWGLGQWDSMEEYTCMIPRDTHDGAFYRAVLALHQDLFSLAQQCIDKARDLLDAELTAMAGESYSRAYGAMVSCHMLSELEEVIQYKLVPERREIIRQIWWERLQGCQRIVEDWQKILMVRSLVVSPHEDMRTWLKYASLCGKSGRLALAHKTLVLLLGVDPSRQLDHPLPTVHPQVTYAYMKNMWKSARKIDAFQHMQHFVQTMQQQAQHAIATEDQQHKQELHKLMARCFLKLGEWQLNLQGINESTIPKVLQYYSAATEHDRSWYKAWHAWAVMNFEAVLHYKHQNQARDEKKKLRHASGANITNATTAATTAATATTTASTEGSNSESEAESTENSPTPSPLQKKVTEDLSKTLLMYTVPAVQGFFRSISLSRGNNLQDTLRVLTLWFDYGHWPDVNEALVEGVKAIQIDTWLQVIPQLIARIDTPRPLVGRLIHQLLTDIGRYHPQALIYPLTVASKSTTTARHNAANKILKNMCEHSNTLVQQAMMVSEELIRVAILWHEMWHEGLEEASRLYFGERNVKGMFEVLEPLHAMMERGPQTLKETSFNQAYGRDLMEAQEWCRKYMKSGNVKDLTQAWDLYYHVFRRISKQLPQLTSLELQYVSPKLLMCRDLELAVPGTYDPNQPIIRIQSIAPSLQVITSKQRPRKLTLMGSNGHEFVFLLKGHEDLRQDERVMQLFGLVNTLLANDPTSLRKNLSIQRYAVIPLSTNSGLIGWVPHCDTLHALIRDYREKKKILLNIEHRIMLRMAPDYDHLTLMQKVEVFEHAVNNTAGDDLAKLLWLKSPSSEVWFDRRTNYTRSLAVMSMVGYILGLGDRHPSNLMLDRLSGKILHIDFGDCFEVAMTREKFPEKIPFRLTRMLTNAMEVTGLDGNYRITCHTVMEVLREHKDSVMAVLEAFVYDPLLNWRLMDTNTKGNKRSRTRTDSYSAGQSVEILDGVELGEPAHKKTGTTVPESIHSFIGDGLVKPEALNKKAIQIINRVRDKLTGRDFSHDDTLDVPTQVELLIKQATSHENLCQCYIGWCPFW

Compound | IC50 (mTOR) | IC50 PI3Ka (PI3Kalpha) | EC50 [1]
Cc1ncnc(N2CCOC(C)(C)C2)c1C#Cc1ccc(N)nc1 [Example B-1] | 105 nM | 46 nM | 112 nM
COCCN1CCN(c2ncnc(C)c2C#Cc2ccc(N)nc2)CC1 [Example B-2] | 32 nM | 145 nM | 301 nM
Cc1ncnc(N2CC[S+]([O-])CC2)c1C#Cc1ccc(N)nc1 [Example B-3] | 83 nM | 199 nM | 501 nM
Cc1ncnc(N2CCOCC2)c1C#Cc1ccc(N)nc1 [Example B-4] | 38 nM | 37 nM | 319 nM
Cc1ncnc(N2CCN(C3CC3)CC2)c1C#Cc1ccc(N)nc1 [Example B-5] | 10 nM | 58 nM | 118 nM
Cc1ncnc(N2CCCOCC2)c1C#Cc1ccc(N)nc1 [Example B-6] | 72 nM | 246 nM | 441 nM
CC(=O)N1CCCN(c2ncnc(C)c2C#Cc2ccc(N)nc2)CC1 [Example B-7] | 94 nM | 348 nM | 722 nM
Cc1ncnc(N2CCN(C)CC2)c1C#Cc1ccc(N)nc1 [Example B-8] | 56 nM | 547 nM | 277 nM
Cc1ncnc(N2C[C@@H](C)O[C@@H](C)C2)c1C#Cc1ccc(N)nc1 [Example B-9] | 11 nM | 34 nM | 184 nM
Cc1ncnc(N2CCNC(=O)CC2)c1C#Cc1ccc(N)nc1 [Example B-10] | 41 nM | 93 nM | 437 nM
CCc1ncnc(N2CCC(C(C)(C)O)CC2)c1C#Cc1ccc(N)nc1 [Example B-11] | 7 nM | 31 nM | 60 nM
CCc1ncnc(N2CCC(O)(C3CCCCC3)CC2)c1C#Cc1ccc(N)nc1 [Example B-12] | 16 nM | 189 nM | 94 nM
Cc1ncnc(N2CCC(CC(C)(C)O)CC2)c1C#Cc1ccc(N)nc1 [Example B-13] | 18 nM | 29 nM | 51 nM
CCc1ncnc(N2CCC(CC(C)(C)O)CC2)c1C#Cc1ccc(N)nc1 [Example B-14] | 9 nM | 26 nM | 29 nM
CCc1ncnc(N2CCC(C=C(C)C)CC2)c1C#Cc1ccc(N)nc1 [Example B-15] | 64 nM | 622 nM | 202 nM
CCc1ncnc(N2CCC(O)(c3ccccc3)CC2)c1C#Cc1ccc(N)nc1 [Example B-16] | 7 nM | 91 nM | 34 nM
CCc1ncnc(N2CCC(O)(Cc3ccccc3)CC2)c1C#Cc1ccc(N)nc1 [Example B-17] | 74 nM | 115 nM | 129 nM
CCc1ncnc(N2CCC(CCO)CC2)c1C#Cc1ccc(N)nc1 [Example B-18] | 5 nM | 35 nM | 34 nM
CCc1ncnc(N2CCC(O)(C(F)(F)F)CC2)c1C#Cc1ccc(N)nc1 [Example B-19] | 1 nM | 53 nM | 3 nM
CCc1ncnc(N2CCCC(NC(C)=O)C2)c1C#Cc1ccc(N)nc1 (centres unmarked) [Example B-20] | 16 nM | 167 nM | 158 nM
CCc1ncnc(N2CCC(NC(C)=O)CC2)c1C#Cc1ccc(N)nc1 [Example B-21] | 19 nM | 83 nM | 162 nM
CCc1ncnc(N2CCC3(CC2)OCCO3)c1C#Cc1ccc(N)nc1 [Example B-22] | 4 nM | 57 nM | 32 nM
Cc1ncnc(N2CCC(C)(O)CC2)c1C#Cc1ccc(N)nc1 [Example B-23] | 7 nM | – | 19 nM

Compound | IC50 (mTOR) | IC50 PI3Ka (PI3Kalpha) | EC50 [1]
CC(=O)NC1CCCN(c2ncnc(C)c2C#Cc2ccc(N)nc2)C1 (centres unmarked) [Example B-24] | 46 nM | 158 nM | 352 nM
CCc1ncnc(N2CCC(O)(CC)CC2)c1C#Cc1ccc(N)nc1 [Example B-36] | 5 nM | – | 20 nM
CCOC1CCN(c2ncnc(CC)c2C#Cc2ccc(N)nc2)CC1 [Example B-46] | – | – | 72 nM
Cc1ncnc(N2CCC(=O)CC2)c1C#Cc1ccc(N)nc1 [Example B-65] | – | – | 218 nM
Cc1ncnc(N2CCC(CC(=O)N3CCN(C)CC3)CC2)c1C#Cc1ccc(N)nc1 [Example E-2] | 366 nM | 96 nM | –
Cc1ncnc(N2CCC(CC(=O)N(C)CCN(C)C)CC2)c1C#Cc1ccc(N)nc1 [Example E-3] | 457 nM | 2001 nM | –
Cc1ncnc(N2CCC(CC(=O)NCCN(C)C)CC2)c1C#Cc1ccc(N)nc1 [Example E-8] | 261 nM | 149 nM | –
Cc1ncnc(N2CCC(CNC(=O)CN(C)C)CC2)c1C#Cc1ccc(N)nc1 [Example F-4] | 457 nM | 301 nM | –
Cc1ncnc(N2CCC(CNC(=O)CC(C)C)CC2)c1C#Cc1ccc(N)nc1 [Example F-7] | 237 nM | 47 nM | –
CCc1ncnc(N2CCC3(CCCCC3)CC2)c1C#Cc1ccc(N)nc1 [Example H-3] | 333 nM | 369 nM | –
CCc1ncnc(N2CCNC(=O)C2)c1C#Cc1ccc(N)nc1 [Example H-4] | 45 nM | 58 nM | –
CCc1ncnc(N2CCNC(=O)C2)c1C#Cc1ccc(N)nc1 [Example H-5] | 91 nM | 745 nM | –
CCc1ncnc(N2CCn3c(COC)nnc3C2)c1C#Cc1ccc(N)nc1 [Example H-8] | 127 nM | 185 nM | –
CCc1ncnc(N2CCN(CCN3CCOCC3)CC2)c1C#Cc1ccc(N)nc1 [Example H-9] | 1570 nM | 449 nM | –
CCc1ncnc(N2CCN(C3CCOCC3)CC2)c1C#Cc1ccc(N)nc1 [Example H-12] | 77 nM | 141 nM | –
CCc1ncnc(N2CCN(CCCS(C)(=O)=O)CC2)c1C#Cc1ccc(N)nc1 [Example H-15] | 25 nM | 108 nM | –
CCc1ncnc(N2CCN(C(=O)N3CCOCC3)CC2)c1C#Cc1ccc(N)nc1 [Example H-16] | 22 nM | 116 nM | –
CCc1ncnc(N2CCc3ccccc3C2)c1C#Cc1ccc(N)nc1 [Example H-17] | 68 nM | 56 nM | –
CCc1ncnc(N2CCc3cc(OC)c(OC)cc3C2)c1C#Cc1ccc(N)nc1 [Example H-18] | 83 nM | 43 nM | –
CCc1ncnc(N2CCN(c3ccccc3C(F)(F)F)CC2)c1C#Cc1ccc(N)nc1 [Example H-19] | 2000 nM | 1861 nM | –
CCc1ncnc(N2CCN(C3COC3)CC2)c1C#Cc1ccc(N)nc1 [Example H-26] | 47 nM | 105 nM | –
CCc1ncnc(N2CCc3c(ncnc3N3CCOCC3)C2)c1C#Cc1ccc(N)nc1 [Example H-27] | 139 nM | 103 nM | –
CCc1ncnc(N2CCN(Cc3nc(C)c(C)o3)CC2)c1C#Cc1ccc(N)nc1 [Example H-28] | 258 nM | 232 nM | –
